Source: patent US20260083722A1, “BIFUNCTIONAL DEGRADERS COMPRISING ELECTROPHILIC PROTACS THAT ENGAGE DCAF1 AND PHARMACEUTICAL COMPOSITIONS COMPRISING THE SAME” (THE SCRIPPS RESEARCH INSTITUTE, priority 2022, published 2026)

Key:
[1] = molecular target: T1, recombinant DCAF1-WT (a.a.'s 1046-1396) (Homo sapiens, UniProt Q9Y4B6); assay: gel-ABPP with recombinant purified DCAF1-WT doped into HEK293T cell proteome; type: binding
T1 construct: form of DCAF1 containing the WD40 domain (amino acids (a.a.'s) 1046-1396); made in house
Text: FIG. 2 that azetidine acrylamides stereo- and site-selectively engage recombinant DCAF1_C1113. (A) Domain map of DCAF1 with the region used for recombinant protein studies marked in a bracket (a.a.'s 1046-1396) and C1113 highlighted in red. (B) Crystal structure of a DCAF1-Vpx complex (pdb: 5AJA). DCAF1 (a.a.'s 1046-1396) is shown in cyan, Vpx is shown in yellow, and C1113, which is located at the DCAF1-Vpx interface is shown in red. (C) Structures of alkyne-modified azetidine acrylamides MY-11A (5) and MY-11B (6). (D) Gel-ABPP showing the concentration-dependent reactivity of MY-11A and MY-11B (1 h) reactivity with recombinant, purified DCAF1-WT or the DCAF1-C1113A mutant (0.06 μg/μL of DCAF1 protein per sample) doped into HEK293T cell proteome (1 μg/μL). MY-11A/B labeling of proteins was visualized by CuAAC conjugation to an azide-rhodamine tag followed by SDS-PAGE and in-gel fluorescence scanning. Results are from a single experiment representative of two independent experiments. (E) Gel-ABPP showing the concentration-dependent effects of MY-1A and MY-1B on MY-11B reactivity with DCAF1-WT. Samples were treated with MY-1A/B for 2 h, followed by MY-11B (25 μM, 1 h) and analyzed as described in (D). Left, quantification of data presented as mean values±SEM from two independent experiments. Right, representative gel-ABPP results. (D, E) Lower images are Coomassie blue-stained gels corresponding to ABPP gels shown in upper images.
(A) Structures of candidate electrophilic PROTACs YT41R (7), YT41S (8), YT47R (9), and YT47S (10). (B) Gel-ABPP showing the concentration-dependent effects of YT41R and YT47R on MY-11B reactivity with DCAF1-WT protein (0.06 μg/μL of DCAF1 protein per sample) doped into HEK293T cell proteome (1 μg/μL). Also shown are the effects of YT41S and YT47S tested at a single concentration (100 μM). Samples were treated with heterobifunctional compounds for 2 h, followed by MY-11B (25 μM, 1 h) and analyzed as described in FIG. 2D. Left, representative gel-ABPP results. Lower image is Coomassie blue-stained gel corresponding to ABPP gel shown in upper image. Right, quantification of data presented as mean values±SEM from two independent experiments.
DCAF1 is a multi-domain substrate receptor for CRL4 ligases (FIG. 2A) that has diverse physiological and disease functions, including being co-opted by the HIV-2 virus to promote degradation of the antiviral host protein SAMHD1^27-28. […] We verified the stereo- and site-selective engagement of DCAF1_C1113 by azetidine acrylamides using alkynylated analogues of MY-1A and MY-1B (MY-11A (5) and MY-11B (6), respectively; FIG. 2C). For these experiments, we doped into HEK293T cell lysates a recombinantly expressed and purified form of DCAF1 containing the WD40 domain (amino acids (a.a.'s) 1046-1396), in complex with the CRL4 adaptor protein DDB1^31, and exposed these samples to varying concentrations of MY-11A or MY-11B. After 1 h, we assessed MY-11A and MY-11B engagement of DCAF1 by copper-catalyzed azide-alkyne cycloaddition (CuAAC)^32 with an azide-rhodamine reporter tag followed by SDS-PAGE and in-gel fluorescence scanning^33. […] We used gel-ABPP to quantify an in vitro target engagement value (TE50) of approximately 25 μM (95% C.I.=13-38 μM) for MY-1B labeling of DCAF1 (FIG. 2E, left).

DCAF1-C1113A mutant = molecular target: T2, DCAF1-C1113A mutant (Homo sapiens, UniProt Q9Y4B6, C1113A); assay: gel-ABPP with recombinant DCAF1-C1113A mutant doped into HEK293T cell proteome; type: binding; settings: 1 h
T2 construct: the region used for recombinant protein studies marked in a bracket (a.a.'s 1046-1396); made in house
Text: FIG. 2 that azetidine acrylamides stereo- and site-selectively engage recombinant DCAF1_C1113. (A) Domain map of DCAF1 with the region used for recombinant protein studies marked in a bracket (a.a.'s 1046-1396) and C1113 highlighted in red. (B) Crystal structure of a DCAF1-Vpx complex (pdb: 5AJA). DCAF1 (a.a.'s 1046-1396) is shown in cyan, Vpx is shown in yellow, and C1113, which is located at the DCAF1-Vpx interface is shown in red. (C) Structures of alkyne-modified azetidine acrylamides MY-11A (5) and MY-11B (6). […] MY-11A/B labeling of proteins was visualized by CuAAC conjugation to an azide-rhodamine tag followed by SDS-PAGE and in-gel fluorescence scanning. […] Samples were treated with MY-1A/B for 2 h, followed by MY-11B (25 μM, 1 h) and analyzed as described in (D). Left, quantification of data presented as mean values±SEM from two independent experiments. […]
DCAF1 is a multi-domain substrate receptor for CRL4 ligases (FIG. 2A) that has diverse physiological and disease functions, including being co-opted by the HIV-2 virus to promote degradation of the antiviral host protein SAMHD1^27-28. […] After 1 h, we assessed MY-11A and MY-11B engagement of DCAF1 by copper-catalyzed azide-alkyne cycloaddition (CuAAC)^32 with an azide-rhodamine reporter tag followed by SDS-PAGE and in-gel fluorescence scanning^33. […]

HA-FKBP12 = molecular target: T3, HA-FKBP12 (Homo sapiens, UniProt P62942); assay: HA-FKBP12 abundance by Western blotting in transfected HEK293T cells; type: cell-based; settings: 5 μM, 1 h pre-treatment
T3 construct: expressed in transfected cells; host or cells: HEK293T
Text: (A) Left, western blots showing concentration-dependent effects of YT47R (upper) and YT41R (lower) on FKBP12 abundance in HEK293T cells expressing HA-FBKP12 with or without co-expression of FLAG-DCAF1. Right, quantification of HA-FKBP12 abundance in the indicated experimental groups. (B) Left, western blots showing effects of YT47R versus YT47S (upper) and YT41R versus YT41S (lower) on FKBP12 abundance in HEK293T cells co-expressing HA-FBKP12 and FLAG-DCAF1. Right, quantification of HA-FKBP12 abundance in the indicated experimental groups. (C) Western blots showing effects of YT47R (left blots) and YT41R (right blots) on FKBP12 abundance in HEK293T cells co-expressing HA-FBKP12 and either FLAG-DCAF1-WT or FLAG-DCAF1-C1113A mutant. Quantification of HA-FKBP12 abundance in the indicated experimental groups is shown in the adjacent bar graphs. For (A-C), FKBP12 abundance was determined at 24 h post-treatment with compounds, and data are mean values±SEM for three independent experiments. Statistical significance was calculated with unpaired two-tailed Student's t-tests comparing YT41R/YT47R- and DMSO-treated cells. ***P<0.001, ****P<0.0001.
(A) Left, western blots showing effects of proteasome (MG132) and Neddylation (MLN4924) inhibitors (1 h pre-treatment) on YT47R- and YT41R-dependent degradation of FKBP12 in HEK293T cells co-expressing HA-FBKP12 and FLAG-DCAF1. FKBP12 abundance was determined at 24 h post-treatment with YT47R or YT41R. Right, quantification of HA-FKBP12 abundance in the indicated experimental groups. (B) Left, western blots showing effects of the FKBP12 ligand SLF (20 μM) or DCAF1 ligand MY-11B (1 h pre-treatment with 20 μM SLF or 5 μM MY-11B) on YT47R- and YT41R-dependent degradation of FKBP12 in HEK293T cells co-expressing HA-FBKP12 and FLAG-DCAF1. FKBP12 abundance was determined at 24 h post-treatment with YT47R or YT41R. Right, quantification of HA-FKBP12 abundance in the indicated experimental groups. (C) Left, western blots showing effects of MY-11A or MY-11B (5 μM, 1 h pre-treatment) on YT47R- and YT41R-dependent degradation of FKBP12 in HEK293T cells co-expressing HA-FBKP12 and FLAG-DCAF1. FKBP12 abundance was determined at 24 h post-treatment with YT47R or YT41R. Right, quantification of HA-FKBP12 abundance in the indicated experimental groups. For (A-C), data are mean values±SEM for three-five independent experiments. Statistical significance was calculated with unpaired two-tailed Student's t-tests comparing YT41R/YT47R- and DMSO-treated cells. ****P<0.0001.
Figure S3. Concentration-dependent degradation of FKBP12 by DCAF1-directed electrophilic PROTACs. Top, western blots showing concentration-dependent effects of YT47R and YT41R on FKBP12 abundance in HEK293T cells co-expressing HA-FBKP12 and FLAG-DCAF1. Data are mean values±SEM for four independent experiments. Statistical significance was calculated with unpaired two-tailed Student's t-tests comparing YT41R/YT47R- and DMSO-treated cells. *P<0.1, **P<0.01, ***P<0.001, ****P<0.0001.
Figure S4. Time-dependent degradation of FKBP12 by DCAF1-directed electrophilic PROTACs. Top, western blots showing time-dependent effects of YT47R and YT41R (2 μM each) on FKBP12 abundance in HEK293T cells co-expressing HA-FBKP12 and FLAG-DCAF1. Data are mean values±SEM for four independent experiments. Statistical significance was calculated with unpaired two-tailed Student's t-tests comparing YT41R/YT47R- and DMSO-treated cells. ****P<0.0001.
We next treated HEK293T cells co-transfected with FLAG epitope-tagged full length DCAF1 (a.a.'s 1-1507) and HA (hemagglutinin) epitope-tagged FKBP12 with a concentration range of YT41R or YT47R and, after 24 h, measured HA-FKBP12 abundance by Western blotting.

[2] = tested on: ternary complex of FKBP12 and DCAF1; assay: co-immunoprecipitation of DCAF1 with HA-FKBP12 in HEK293T cells (ternary complex); type: cell-based; settings: FLAG-DCAF1-WT, 5 μM, 2 h, in the presence of MG132 (10 μM)
Procedure: (A) Left, western blots showing effects of YT47R and YT47S on the immunoprecipitation (IP) of FLAG-DCAF1-WT or FLAG-DCAF1-C1113A with HA-FKBP12 in HEK293T cells co-expressing these proteins. Cells were treated with YT47R or YT47S (5 μM) for 2 h in the presence of MG132 (10 μM) prior to lysis and IP with an anti-HA antibody and western blotting for the indicated proteins (DCAF1, FKBP12, and ubiquitinated protein). Right, bar graphs quantifying DCAF1 (top) and ubiquitination (Ub) (bottom) in the indicated IP groups. (B) Left, western blots showing effects of YT47R and YT47S on the IP of endogenous DCAF1 with HA-FKBP12 in HEK293T cells expressing HA-FKBP12. Cells were treated with YT47R or YT47S (5 μM) for 2 h in the presence of MG132 (10 μM) prior to lysis and IP with an anti-HA antibody and western blotting for the indicated proteins (DCAF1, FKBP12). Right, bar graph quantifying DCAF1 in the indicated IP groups. For (A, B), data are mean values±SEM for three independent experiments. Statistical significance was calculated with unpaired two-tailed Student's t-tests comparing YT41R/YT47R- and DMSO-treated cells. **P<0.01, ****P<0.0001. (C) MS-ABPP quantification of IA-DTB labeling of the indicated cysteines in DCAF1 from FLAG-DCAF1-WT-expressing HEK293T cells treated with the indicated concentrations of YT47R (3 h) relative to cells treated with DMSO. Data represent average values±SEM from four independent experiments. Statistical significance was calculated with unpaired two-tailed Student's t-tests comparing compound to DMSO treated cells. *P<0.1.
Finally, we investigated whether electrophilic PROTACs induce a stable ternary complex of FKBP12 with DCAF1 and promote FKBP12 ubiquitination. […] A ternary complex was not observed in cells expressing the DCAF1-C1113A mutant (FIG. 6A), supporting that YT47R induces this complex through site-specifically reacting with C1113. […] In considering possible reasons why this ternary complex formation with endogenous DCAF1 was insufficient to support the degradation of recombinantly expressed FKBP12 (FIG. 4A), we speculate that our current PROTACs (YT41R, YT47R) may require further improvements in cellular properties to enable robust targeted protein degradation mediated by physiological concentrations of DCAF1.

T1 sequence (Q9Y4B6 1046-1396): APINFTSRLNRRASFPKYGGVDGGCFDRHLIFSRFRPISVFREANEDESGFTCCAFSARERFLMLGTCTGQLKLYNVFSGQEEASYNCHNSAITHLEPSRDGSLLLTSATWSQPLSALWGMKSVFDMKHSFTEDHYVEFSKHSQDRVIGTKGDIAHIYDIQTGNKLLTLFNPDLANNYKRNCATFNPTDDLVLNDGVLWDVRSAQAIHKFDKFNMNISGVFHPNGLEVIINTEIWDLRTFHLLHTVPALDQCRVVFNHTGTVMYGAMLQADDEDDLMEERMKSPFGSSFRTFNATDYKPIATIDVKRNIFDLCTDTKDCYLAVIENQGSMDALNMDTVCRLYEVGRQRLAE
T1 sequence (Q16531 whole entry partner, the tested form may be a part): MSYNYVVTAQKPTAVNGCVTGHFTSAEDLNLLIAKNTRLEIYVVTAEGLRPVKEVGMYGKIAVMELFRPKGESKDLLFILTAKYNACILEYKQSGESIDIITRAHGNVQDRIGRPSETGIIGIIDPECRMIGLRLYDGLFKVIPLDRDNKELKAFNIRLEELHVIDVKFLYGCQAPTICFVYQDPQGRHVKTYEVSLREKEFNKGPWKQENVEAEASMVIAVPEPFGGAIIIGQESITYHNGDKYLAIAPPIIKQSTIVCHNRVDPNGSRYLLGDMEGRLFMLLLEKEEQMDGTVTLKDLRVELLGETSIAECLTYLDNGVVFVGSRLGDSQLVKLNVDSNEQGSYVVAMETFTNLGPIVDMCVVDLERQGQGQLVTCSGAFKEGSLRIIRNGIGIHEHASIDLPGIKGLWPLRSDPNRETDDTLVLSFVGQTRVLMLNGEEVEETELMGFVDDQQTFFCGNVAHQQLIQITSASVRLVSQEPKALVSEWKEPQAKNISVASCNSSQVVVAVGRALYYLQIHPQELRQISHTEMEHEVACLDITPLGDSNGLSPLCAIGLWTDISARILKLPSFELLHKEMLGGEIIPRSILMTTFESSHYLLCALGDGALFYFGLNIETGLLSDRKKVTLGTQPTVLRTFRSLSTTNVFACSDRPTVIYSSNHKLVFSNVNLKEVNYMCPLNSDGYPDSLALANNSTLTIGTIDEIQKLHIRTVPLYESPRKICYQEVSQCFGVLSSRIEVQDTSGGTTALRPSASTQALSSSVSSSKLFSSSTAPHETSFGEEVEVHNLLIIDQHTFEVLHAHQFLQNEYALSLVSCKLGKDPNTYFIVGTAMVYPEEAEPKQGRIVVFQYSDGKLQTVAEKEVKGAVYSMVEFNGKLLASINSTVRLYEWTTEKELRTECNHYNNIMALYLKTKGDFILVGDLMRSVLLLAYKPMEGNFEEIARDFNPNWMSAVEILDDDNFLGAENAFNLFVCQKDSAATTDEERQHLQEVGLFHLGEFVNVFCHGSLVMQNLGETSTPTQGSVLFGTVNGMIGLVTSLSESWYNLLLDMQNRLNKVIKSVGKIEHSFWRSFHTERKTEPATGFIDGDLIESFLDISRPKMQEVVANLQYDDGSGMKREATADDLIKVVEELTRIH
T2 sequence (Q9Y4B6 1046-1396 C1113A): as the sequence (Q9Y4B6 1046-1396) above, with C68A counted along it
T2 sequence (Q16531 whole entry partner): as the sequence (Q16531 whole entry partner, the tested form may be a part) above
T3 sequence (P62942 whole entry): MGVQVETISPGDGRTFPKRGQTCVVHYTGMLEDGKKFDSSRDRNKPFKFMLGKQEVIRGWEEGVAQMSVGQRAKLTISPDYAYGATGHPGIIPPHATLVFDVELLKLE

Compound	labeling of recombinant DCAF1 by alkyne probe ([1]; 1 h, DCAF1-WT, CuAAC azide-rhodamine, in-gel fluorescence)	labeling of DCAF1-C1113A mutant by alkyne probe (DCAF1-C1113A mutant)	effect on YT41R/YT47R-mediated degradation of HA-FKBP12 (HA-FKBP12)	inhibition of MY-11B probe reactivity with recombinant DCAF1 ([1]; 2 h, then MY-11B 25 μM 1 h, YT41S and YT47S at single concentration 100 μM)	ternary complex of FKBP12 and DCAF1 [2]
C#Cc1ccc([C@H]2CN(C(=O)C=C)[C@H]2C(=O)Nc2cccc3cccnc23)cc1 [MY-11B, (2R,3S)-1-acryloyl-3-(4-ethynylphenyl)-N-(88uinoline-8-yl) azetidine-2-carboxamide]	much greater concentration-dependent labeling	blocked by mutation of C1113 to alanine	blocked		
C=CC(=O)N1C[C@@H](c2ccc(C(=O)NCCOCCOCCOCCNC(=O)COc3cccc([C@@H](CCc4ccc(OC)c(OC)c4)OC(=O)[C@@H]4CCCCN4C(=O)C(=O)C(C)(C)CC)c3)cc2)[C@H]1C(=O)Nc1cccc2cccnc12 [YT47S]				did not impair	not
